Data taken from publication PMC9145865, “Effects of Rare Phytocannabinoids on the Endocannabinoid System of Human Keratinocytes” (International Journal of Molecular Sciences, 2022).

What was measured:
FAAH = assay: qRT-PCR gene expression of FAAH; assay type: cell-based, human; details: HaCaT cells, half-IC50 dose, 24 h, vs. control
Protocol: (§1) The HaCaT cells were seeded into 6-well plates at a density of 4 × 10^4 per well, incubated overnight and then treated with the selected pCBs (CBG (6.0 µM), CBC (4.0 µM), THCV (9.0 µM) and CBGA (13.0 µM)) for 24 h. The cell pellets were collected and RT-PCR reactions were performed using the RevertAid H Minus First Strand cDNA Synthesis Kit. The relative abundance was assessed via RT quantitative PCR (RT-qPCR) using the SensiFAST SYBR Lo-ROX Kit in an Applied Biosystems 7500 Fast Real-Time PCR System (Life Technologies). To provide the precise quantification of the initial target in each PCR reaction, the amplification plot was examined, as well as the point of early log phase of the product accumulation, which was defined by assigning a fluorescence threshold above the background that was defined as the threshold cycle number or “Ct. Differences” in threshold cycle number that was used to quantify the relative amount of the PCR targets that were contained within each tube. After PCR, a dissociation curve (melting curve) was constructed in the range of 60 °C to 95 °C [62] to evaluate the specificity of the amplification products. The relative expression of the different amplicons was calculated using the delta–delta Ct (ΔΔCt) method and then converted into the relative expression ratio (2^−ΔΔCt) for statistical analysis. […]

NAPE-PLD [1] = assay: NAPE-PLD activity assay in homogenates of treated cells; assay type: cell-based, human; details: HaCaT cells, half-IC50 amount, 24 h, vs. control
Protocol: NAPE-PLD: The HaCaT cells were seeded into 6-well plates at a density of 4 × 10^4 per well, incubated overnight and then treated with the selected pCBs (6.0 µM of CBG, 4.0 µM of CBC, 9.0 µM of THCV and 13.0 µM of CBGA) for 24 h. The cell pellets were collected and NAPE-PLD activity was determined in the homogenates of the cells after 24 h of treatment with each pCB. Then, the homogenates were incubated in a reaction mixture that contained 50 mM of Tris–HCl, 0.05% Triton X-100 pH 8.0 and 10 µM of fluorogenic substrate PED6 (N-((6-(2,4-Dinitrophenyl)amino)hexanoyl)-2(4,4-Difluoro-5,7-Dimethyl-4-Bora-3a,4a-Diaza-s-Indacene-3-Pentanoyl)-1-Hexadecanoyl-sn-Glycero-3 Phosphoethanolamine, Triethylammonium Salt). The homogenates were pre-incubated with the specific NAPE-PLD inhibitor ARN19874 at 3.8 mM [65] (Cayman Chemical, Ann Arbor, MI, USA) for 30 min at room temperature in order to fully erase the enzyme activity as a control. Fluorescence values were measured with excitation at λ = 485–488 nm and emission at λ = 530 nm at 37 °C by means of continuity kinetics at 30-sec intervals for 30 min in an Enspire multimode plate reader (Perkin Elmer, Waltham, MA, USA), as reported in [66]. NAPE-PLD activity was expressed as florescence intensity (arbitrary units, AU) per min per mg of protein.

CB1 = details: in vivo and in vitro; ref [53]; cited from earlier work
NAPE-PLD [2] = assay: qRT-PCR gene expression of NAPE-PLD; assay type: cell-based, human; details: HaCaT cells, half-IC50 dose, 24 h, vs. control
Protocol: as §1

[3] = tested on: transformed human keratinocytes; parameters: method as in PMID 17157480; details: hyperproliferative conditions; ref [46]; cited from earlier work
MAGL = assay: qRT-PCR gene expression of MAGL; assay type: cell-based, human; details: HaCaT cells, half-IC50 dose, 24 h, vs. control
Protocol: as §1

skin = tested on: skin; parameters: method as in PMID 35056807; details: applied topically; ref [59]; cited from earlier work
PEA = assay: Endogenous PEA content by UHPLC-MS/MS; assay type: cell-based, human; details: HaCaT cells, half-IC50 dose, 24 h, vs. control
Protocol: (§2) The HaCaT cells were seeded into 6-well plates at a density of 4 × 10^4 per well, incubated overnight and then treated with the selected pCBs (6.0 µM of CBG, 4.0 µM of CBC, 9.0 µM of THCV and 13.0 µM of CBGA) for 24 h. The analytical standards that were used were N-arachidonoylethanolamine (AEA), N-arachidonoylethanolamine-d8 (AEA-d8), 2-arachidonoylglicerol (2-AG), 2-arachidonoylglicerol-d8 (2-AG-d8), N-palmitoylethanolamine (PEA) and […] (PEA-d4). The lipid fraction from these cells was extracted using chloroform–methanol–water (2:1:1 v/v) in the presence of ISs (1 ng/mL^−1 of AEA-d8, 100 ng mL^−1 of 2-AG-d8 and 1 ng mL^−1 of PEA-d4). The organic phase was dried under gentle nitrogen stream and then subjected to a micro-solid phase extraction (µSPE) procedure for a rapid clean-up using OMIX C18 tips from Agilent Technologies (Santa Clara, CA, USA). All analyses were performed using a Nexera XR LC 20 AD UHPLC system (Shimadzu Scientific Instruments, USA) that was equipped with Kinetex XB-C18 1.7 µm 100 × 2.1 mm from Phenomenex (Torrance, CA, USA) (for the LC parameters, see Figure S5) and coupled with a 4500 Qtrap from Sciex (Toronto, ON, Canada) that was equipped with a Turbo V electrospray ionization (ESI) source (the MS/MS parameters are shown in Table S1). The levels of AEA, 2-AG and PEA were then calculated as pmoles per 10^6 cells, as reported in [60].

2-AG = assay: Endogenous 2-AG content by UHPLC-MS/MS; assay type: cell-based, human; details: HaCaT cells, half-IC50 dose, 24 h, vs. control
Protocol: as §2

In the case of `CCCCCc1cc(O)c(C/C=C(\C)CCC=C(C)C)c(O)c1C(=O)O` [CBGA, cannabigerolic acid], the “Gene Expression FAAH” value (FAAH) is reported as “FAAH ↓+++”, the “gene expression of FAAH (in words)” value (FAAH) is reported as “significantly reduced” and the “activity of NAPE-PLD” value (NAPE-PLD [1]) is reported as “significantly increased”.

For `CCCc1cc(O)c2c(c1)OC(C)(C)[C@@H]1CCC(C)=C[C@@H]21` [THCV, Δ^9-tetrahydrocannabivarin], the “activity at CB1” value (CB1) is given as “CB1 antagonist”.

With `CCCCCc1cc(O)c2c(c1)OC(C)(CCC=C(C)C)C=C2` (stereo not shown) [CBC, cannabichromene] the “gene expression of NAPE-PLD (in words)” value (NAPE-PLD [2]) was “significantly increased”.

For `CCCCCc1cc(O)c(C/C=C(\C)CCC=C(C)C)c(O)c1` [CBG, cannabigerol], the “proliferation of transformed human keratinocytes” value [3] is listed as “inhibit the proliferation”, the “gene expression of MAGL (in words)” value (MAGL) is listed as “significantly increase” and the “skin health after topical application” value (skin) is listed as “reducing the appearance of redness and improving barrier function”. The “endogenous PEA content” value (PEA) was “markedly increased” and the “endogenous 2-AG content” value (2-AG) was “markedly increased”.
